This note sets out measurements from ChEMBL document CHEMBL1145600, “Molecular features crucial to the activity of pyrimidine benzamide-based thrombopoietin receptor agonists” (Bioorg Med Chem Lett, 2008).

In the first assay the target is T1, Thrombopoietin receptor (Homo sapiens, UniProt P40238).
T1 sequence (P40238 whole entry): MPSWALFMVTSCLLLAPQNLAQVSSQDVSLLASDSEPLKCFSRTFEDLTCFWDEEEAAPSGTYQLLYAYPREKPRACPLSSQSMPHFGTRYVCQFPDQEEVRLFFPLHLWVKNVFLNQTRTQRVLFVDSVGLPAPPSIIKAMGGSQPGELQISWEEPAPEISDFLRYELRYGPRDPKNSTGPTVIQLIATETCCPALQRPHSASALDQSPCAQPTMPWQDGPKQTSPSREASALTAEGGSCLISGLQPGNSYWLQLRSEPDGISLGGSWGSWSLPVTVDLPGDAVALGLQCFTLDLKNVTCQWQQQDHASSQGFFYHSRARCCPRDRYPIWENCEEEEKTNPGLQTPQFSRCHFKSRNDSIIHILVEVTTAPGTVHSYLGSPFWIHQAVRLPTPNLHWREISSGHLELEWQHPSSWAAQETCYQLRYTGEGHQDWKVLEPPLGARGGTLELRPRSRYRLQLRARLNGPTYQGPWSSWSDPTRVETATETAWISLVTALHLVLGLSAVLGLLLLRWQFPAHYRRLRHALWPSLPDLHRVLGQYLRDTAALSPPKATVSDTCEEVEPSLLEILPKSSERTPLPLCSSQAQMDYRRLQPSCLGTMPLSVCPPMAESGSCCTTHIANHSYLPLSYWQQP
Kind of assay: Agonist activity at TPO receptor. In kind it is functional.
As usually defined, the EC50 is the concentration that produces a half-maximal response. High values mean a need for much substance, low ones an effect from little substance. Turning to `Nc1nc(-c2ccc(F)c(C(F)(F)F)c2)c(F)s1`, the EC50 was found to be 89 nM.

`O=C(Nc1nc2c(s1)COc1c(Cl)cccc1-2)c1ccc(Nc2ccncn2)cc1`: the EC50 is 530 nM. Still for that read-out and setting: with `Nc1nc(-c2cccc(OC(F)(F)F)c2F)cs1` the figure was 32 nM; with `Nc1nc(-c2cccc(C(F)(F)F)c2F)cs1`, 57 nM; with `Cc1sc(N)nc1-c1ccc(F)c(C(F)(F)F)c1`, 180 nM.

In turn, `O=C(Nc1nc2c(s1)COc1c(F)cccc1-2)c1ccc(Nc2ccncn2)cc1` showed an EC50 of 1500 nM.

The compound `Nc1nc(-c2cc(C(F)(F)F)ccc2F)cs1` came in with an EC50 of 5200 nM. Compound `Nc1nc(-c2ccccc2F)cs1` came in with an EC50 of 6800 nM.

`Nc1nc(-c2cccc(C(F)(F)F)c2F)c(F)s1`: the EC50 stood at 700 nM. Same read-out and setting: with `O=C(Nc1nc2c(s1)COc1ccccc1-2)c1ccc(Nc2ccncn2)cc1` the figure was 520 nM; with `Nc1nc(-c2c(F)cccc2F)cs1`, greater than 10000 nM; with `Nc1nc(-c2ccc(C(F)(F)F)cc2F)cs1`, 260 nM.

`Nc1nc(-c2ccc(F)c(C(F)(F)F)c2)cs1` yielded an EC50 of 100 nM.

In turn, `Cc1sc(N)nc1-c1cccc(C(F)(F)F)c1F` registered an EC50 of 540 nM.

The target of another assay is T2, Thrombopoietin receptor (Homo sapiens) (UniProt P40238).
T2 sequence (whole entry): T1 sequence (P40238 whole entry)
Kind of assay: Agonist activity at TPO receptor at 10 uM. The class given is functional.
The compound `O=C(Nc1nc(-c2cccc(F)c2)cs1)c1ccc(Nc2ccncn2)cc1` registered an Activity of 45%. The same measure, in the same setting: with `Nc1nc(-c2c(F)cccc2F)cs1` the figure was 0%. Turning to `O=C(Nc1nc(-c2c(F)cccc2F)cs1)c1ccc(Nc2ccncn2)cc1`, the Activity worked out at 0%. The same measure, in the same setting: with `O=C(Nc1nc(-c2ccccc2F)cs1)c1ccc(Nc2ccncn2)cc1` the figure was 58%; with `O=C(Nc1nc(-c2ccccc2C(F)(F)F)cs1)c1ccc(Nc2ccncn2)cc1`, 38%.
